Reference: paper PMC8699718, “A structurally conserved site in AUP1 binds the E2 enzyme UBE2G2 and is essential for ER-associated degradation” (PLoS Biology, 2021)
Ends that are not written are not given here.

Test system: UBE2G2
Experiment: CHX chase: UBE2G2 turnover in HT1080 AUP1 KO cells
Type: cell-based, human
Details: GFP fusion transfected with MYC-UBE2G2, HT1080 AUP1 KO, compared with GFP-SCR
Description: Fig 7 G2BR^AUP1 protects UBE2G2 from degradation. (A) Indicated cells were assessed for steady state levels and turnover of endogenous UBE2G2 by CHX chase. (B) Transcript levels of endogenous UBE2G2 in AUP1 KO cells compared to HT1080 as determined by qPCR. Mean and standard deviation from three independent experiments is shown. […] (D) AUP1 KO cells were transfected with plasmids encoding MYC-UBE2G2 and GFP fusions of either a scrambled G2BR (SCR), G2BR^gp78, or G2BR^AUP1, and the turnover of UBE2G2 was assessed. (E) Relative abundance of gp78 (left panel) and AUP1 (right panel) in HT1080 cells was determined by resolving indicated amounts (in pmoles) of purified GST-gp78 (aa 429 to 611) or GST-AUP1 (aa 61 to 410) fusions alongside approximately 1 × 10^4 cellular equivalents of cell lysate and immunoblotting with gp78 or AUP1 antibodies. For each antibody, the amount of immunoreactivity in the lysate was compared to a defined quantity of a GST fusion protein of gp78 or AUP1 spanning the epitope recognized by the probing antibody. […] The data underlying this figure can be found in S1 and S8 Data. aa, amino acid; AUP1, ancient ubiquitous protein 1; CHX, cycloheximide; G2BR, UBE2G2 Binding Region; KO, knockout; qPCR, quantitative polymerase chain reaction; WT, wild type. […]

GFP-G2BR^AUP1: GFP fusion of AUP1 aa 378 to 404 (SSWARQESLQERKQALYEYARRRFTER; also: GFP fusion; UniProt Q9Y679 378-404, looked up, fragment)
UBE2G2 degradation and steady state level: protected UBE2G2 from degradation and increased the steady state level of this E2
